Structures are written as SMILES.

The first assay has as its target T1, human O-GlcNAcase (Homo sapiens, UniProt O60502).
T1 sequence (O60502 1-916): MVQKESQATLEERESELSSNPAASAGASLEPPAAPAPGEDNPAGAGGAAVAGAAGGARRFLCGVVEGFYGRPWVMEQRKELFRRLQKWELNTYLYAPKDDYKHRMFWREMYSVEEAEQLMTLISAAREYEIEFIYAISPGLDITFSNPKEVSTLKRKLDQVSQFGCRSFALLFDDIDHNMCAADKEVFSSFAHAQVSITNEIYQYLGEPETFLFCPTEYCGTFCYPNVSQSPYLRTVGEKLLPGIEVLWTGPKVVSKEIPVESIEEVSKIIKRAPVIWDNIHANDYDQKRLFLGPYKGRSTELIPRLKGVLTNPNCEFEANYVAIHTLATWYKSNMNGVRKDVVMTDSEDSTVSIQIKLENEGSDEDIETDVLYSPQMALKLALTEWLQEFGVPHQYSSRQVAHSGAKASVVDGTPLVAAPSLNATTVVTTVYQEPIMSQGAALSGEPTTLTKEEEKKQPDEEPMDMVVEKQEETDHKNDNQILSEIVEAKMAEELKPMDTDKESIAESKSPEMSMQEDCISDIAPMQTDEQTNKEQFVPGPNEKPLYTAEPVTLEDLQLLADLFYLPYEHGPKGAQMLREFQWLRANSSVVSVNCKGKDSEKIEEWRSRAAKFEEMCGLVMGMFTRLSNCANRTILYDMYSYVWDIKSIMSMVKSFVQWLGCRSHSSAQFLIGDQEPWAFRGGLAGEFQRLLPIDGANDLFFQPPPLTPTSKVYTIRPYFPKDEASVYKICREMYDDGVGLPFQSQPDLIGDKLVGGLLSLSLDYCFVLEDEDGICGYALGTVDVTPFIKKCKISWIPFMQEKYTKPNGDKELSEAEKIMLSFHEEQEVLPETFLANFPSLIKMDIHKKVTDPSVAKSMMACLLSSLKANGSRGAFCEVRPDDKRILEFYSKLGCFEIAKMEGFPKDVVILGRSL
Description: Determination of KI values for inhibition of O-GlcNAcase activity (fluorogenic 4-methylumbelliferyl GlcNAc substrate). The assay is classed as biochemical.
Conditions: not given
As to the method: Assay for Determination of […] for Inhibition of O-GlcNAcase Activity
Experimental procedure for kinetic analyses: Enzymatic reactions were carried out in a reaction containing 50 mM NaH2PO4, 100 mM NaCl and 0.1% BSA (pH 7.0) using 2 mM 4-Methylumbelliferyl N-acetyl-β-D-glucosaminide dihydrate (Sigma M2133) dissolved in ddH2O, as a substrate. The amount of purified human O-GlcNAcase enzyme used in the reaction was 0.7 nM. Test compound of varying concentrations was added to the enzyme prior to initiation of the reaction. The reaction was performed at room temperature in a 96-well plate and was initiated with the addition of substrate. […] The slope of product production was determined for each concentration of compound tested and plotted, using standard curve fitting algorithms for sigmoidal dose response curves. The values for a four parameter logistic curve fit of the data were determined.
The term Ki denotes the dissociation constant of the complex between target and ligand, obtained from inhibition or displacement. Compound `CCNC1=N[C@@H]2[C@@H](O)[C@H](O)[C@@H](C(=O)N(C)OC)O[C@@H]2S1` [Example 47, (3aR,5S,6S,7R,7aR)-2-(ethylamino)-6,7-dihydroxy-N-methoxy-N-methyl-5,6,7,7a-tetrahydro-3aH-pyrano[3,2-d]thiazole-5-carboxamide] came in with an inhibition constant Ki of 3320 nM.
Still for that read-out and setting: to `CCNC1=N[C@@H]2[C@@H](O)[C@H](O)[C@@H](C(=O)N(C)C)O[C@@H]2S1` [Example 51, (3aR,5S,6S,7R,7aR)-2-(ethylamino)-6,7-dihydroxy-N,N-dimethyl-5,6,7,7a-tetrahydro-3aH-pyrano[3,2-d]thiazole-5-carboxamide] belongs 1880 nM.
The same measure, in the same setting: to `CCNC1=N[C@@H]2[C@@H](O)[C@H](O)[C@@H](C(=O)O)O[C@@H]2S1` [Example 52, (3aR,5S,6S,7R,7aR)-2-(ethylamino)-6,7-dihydroxy-5,6,7,7a-tetrahydro-3aH-pyrano[3,2-d]thiazole-5-carboxylic acid] belongs 27 nM; to `CCNC1=N[C@@H]2[C@@H](O)[C@H](O)[C@@H](C(=O)OC)O[C@@H]2S1` [Example 53, (3aR,5S,6S,7R,7aR)-N-ethyl-6,7-clihydroxy-5-(methoxycarbonyl)-5,6,7,7a-tetrahydro-3aH-pyrano[3,2-d]thiazol-2-aminium chloride], 480 nM; to `CCNC1=N[C@@H]2[C@@H](O)[C@H](O)[C@@H](CCl)O[C@@H]2S1` [Example 54, (3aR,5S,6S,7R,7aR)-5-(chloromethyl)-2-(ethylamino)-5,6,7,7a-tetrahydro-3aH-pyrano[3,2-d]thiazole-6,7-diol], 2.3 nM.

The assay is the same for the next values; noted with them: purified human O-GlcNAcase 0.7 nM, 2 mM substrate, pH 7.0, room temperature; Cheng-Prusoff; read-out: Ki.
As for `CNC1=N[C@@H]2[C@@H](O)[C@H](O)[C@@H](CCl)O[C@@H]2S1` [Example 39, (3aR,5 S,6S,7R,7aR)-5-(chloromethyl)-2-(methylamino)-5,6,7,7a-tetrahydro-3aH-pyrano[3,2-d]thiazole-6,7-diol], the Ki was 0.075 nM.
On the same count and under the same terms, the same measure for `CNC1=N[C@@H]2[C@@H](O)[C@H](O)[C@@H](CCN)O[C@@H]2S1` [Example 40, (3aR,5R,6S,7R,7aR)-5-(2-aminoethyl)-2-(methylamino)-5,6,7,7a-tetrahydro-3aH-pyrano[3,2-d]thiazole-6,7-diol]: 24 nM; for `CNCC[C@H]1O[C@@H]2SC(NC)=N[C@@H]2[C@@H](O)[C@@H]1O` [Example 41, (3aR,5R,6S,7R,7aR)-2-(methylamino)-5-(2-(methylamino)ethyl)-5,6,7,7a-tetrahydro-3aH-pyrano[3,2-d]thiazole-6,7-diol]: 8.4 nM.
Take `CNC1=N[C@@H]2[C@@H](O)[C@H](O)[C@@H](C(=O)NC3CC3)O[C@@H]2S1` [Example 42, (3aR,5S,6S,7R,7aR)-N-cyclopropyl-6,7-dihydroxy-2-(methylamino)-5,6,7,7a-tetrahydro-3aH-pyrano[3,2-d]thiazole-5-carboxamide]: the Ki stood at 987 nM.
On the same count and under the same terms, to `CNC1=N[C@@H]2[C@@H](O)[C@H](O)[C@@H](C(=O)NC(C)C)O[C@@H]2S1` [Example 43, (3aR,5S,6S,7R,7aR)-6,7-dihydroxy-N-isopropyl-2-(methylamino)-5,6,7,7a-tetrahydro-3aH-pyrano[3,2-d]thiazole-5-carboxamide] belongs 588 nM; to `CCNC(=O)[C@H]1O[C@@H]2SC(NC)=N[C@@H]2[C@@H](O)[C@@H]1O` [Example 44, (3aR,5S,6S,7R,7aR)-N-ethy1-6,7-dihydroxy-2-(methylamino)-5,6,7,7a-tetrahydro-3aH-pyrano[3,2-d]thiazole-5-carboxamide], 1430 nM; to `CCN(CC)C(=O)[C@H]1O[C@@H]2SC(NC)=N[C@@H]2[C@@H](O)[C@@H]1O` [Example 45, (3aR,5S,6S,7R,7aR)-N,N-diethyl-6,7-dihydroxy-2-(methylamino)-5,6,7,7a-tetrahydro-3aH-pyrano[3,2-d]thiazole-5-carboxamide], 2500 nM.
Take `CCNC1=N[C@@H]2[C@@H](O)[C@H](O)[C@@H](C(=O)NC3CC3)O[C@@H]2S1` [Example 46, (3aR,5S,6S,7R,7aR)-N-cyclopropyl-2-(ethylamino)-6,7-dihydroxy-5,6,7,7a-tetrahydro-3aH-pyrano[3,2-d]thiazole-5-carboxamide]: the inhibition constant Ki came out at 1960 nM.
Same read-out and setting: to `CCNC1=N[C@@H]2[C@@H](O)[C@H](O)[C@@H](C(=O)NC)O[C@@H]2S1` [Example 48, (3aR,5S,6S,7R,7aR)-2-(ethylamino)-6,7-dihydroxy-N-methyl-5,6,7,7a-tetrahydro-3aH-pyrano[3,2-d]thiazole-5-carboxamide] belongs 370 nM; to `CCNC1=N[C@@H]2[C@@H](O)[C@H](O)[C@@H](C(=O)NC(C)C)O[C@@H]2S1` [Example 49, (3aR,5S,6S,7R,7aR)-2-(ethylamino)-6,7-dihydroxy-N-isopropyl-5,6,7,7a-tetrahydro-3aH-pyrano[3,2-d]thiazole-5-carboxamide], 142 nM.
Same read-out and setting: the same measure for `CCNC(=O)[C@H]1O[C@@H]2SC(NCC)=N[C@@H]2[C@@H](O)[C@@H]1O` [Example 50, (3aR,5S,6S,7R,7aR)-N-ethyl-2-(ethylamino)-6,7-dihydroxy-5,6,7,7a-tetrahydro-3aH-pyrano[3,2-d]thiazole-5-carboxamide]: 2880 nM; for `CCNCC[C@H]1O[C@@H]2SC(NC)=N[C@@H]2[C@@H](O)[C@@H]1O` [Example 55, (3aR,5R,6S,7R,7aR)-5-(2-(ethylamino)ethyl)-2-(methylamino)-5,6,7,7a-tetrahydro-3aH-pyrano[3,2-d]thiazole-6,7-diol]: 9.3 nM.
In the case of `CN(C)C1=N[C@@H]2[C@@H](O)[C@H](O)[C@@H](C(C)(C)Cl)O[C@@H]2S1` [Example 56, (3aR,5S,6S,7R,7aR)-5-(2-chloropropan-2-yl)-2-(dimethylamino)-5,6,7,7a-tetrahydro-3aH-pyrano[3,2-d]thiazole-6,7-diol], the Ki turned out to be 207 nM.
Still for that read-out and setting: the same measure for `C#C[C@H]1O[C@@H]2SC(NCC)=N[C@@H]2[C@@H](O)[C@@H]1O` [Example 57, (3aR,5R,6S,7R,7aR)-2-(ethylamino)-5-ethynyl-5,6,7,7-tetrahydro-3aH-pyrano[3,2-d]thiazole-6,7-diol]: 837 nM; for `CCNC1=N[C@@H]2[C@@H](O)[C@H](O)[C@@H](C#N)O[C@@H]2S1` [Example 58, (3aR,5R,6S,7R,7aR)-2-(ethylamino)-6,7-dihydroxy-5,6,7,7a-tetrahydro-3aH-pyrano[3,2-d]thiazole-5-carbonitrile]: 601 nM; for `CNC1=N[C@@H]2[C@@H](O)[C@H](O)[C@@H](CSc3ccccc3)O[C@@H]2S1` [Example 59, (3aR,5 S,6S,7R,7aR)-2-(methylamino)-5-((phenylthio)methyl)-5,6,7,7a-tetrahydro-3aH-pyrano[3,2-d]thiazole-6,7-diol]: 1.9 nM.
Same read-out and setting: to `CNC1=N[C@@H]2[C@@H](O)[C@H](O)[C@@H](CS(=O)(=O)c3ccccc3)O[C@@H]2S1` [Example 60, (3aR,5 S,6S,7R,7aR)-2-(methylamino)-5-((phenylsulfonyl)methyl)-5,6,7,7a-tetrahydro-3 aH-pyrano[3,2-d]thiazole-6,7-diol] belongs 75 nM.
`CNC1=N[C@@H]2[C@@H](O)[C@H](O)[C@@H](CSCc3ccccc3)O[C@@H]2S1` [Example 61, (3aR,5S,6S,7R,7aR)-5-((benzylthio)methyl)-2-(methylamino)-5,6,7,7a-tetrahydro-3aH-pyrano[3,2-d]thiazole-6,7-diol]: the inhibition constant (Ki) is 4.1 nM.

For the origin of these results see patent US9938299B2, “Glycosidase inhibitors and uses thereof” (MERCK SHARP & DOHME CORP., priority 2012, dated 2018).
